18 compounds from ChEMBL document CHEMBL4680210, “Discovery of 1,6-naphthyridinone-based MET kinase inhibitor bearing quinoline moiety as promising antitumor drug candidate” (Eur J Med Chem, 2020) can be followed below.

The structures appear in SMILES notation.

The subject of one series is HT-29. The series is described as follows: cells. The following applies: Homo sapiens, HT-29, 72 h.
Series [1] in a line: Half life in rat liver microsomes. Format: ADME, Microsome.
Series [2] has as its target Hepatocyte growth factor receptor (Homo sapiens, UniProt P08581).
For a further series, the system named is MKN-45. Briefly: cells. The settings on record: Homo sapiens, MKN-45, 72 h.
The next series has as its system NCI-H460. The series is described as follows: cells. The following applies: Homo sapiens, NCI-H460, 72 h.
A further series is described as follows: cells. The following applies: Homo sapiens, U-87 MG, 72 h.
The nature of series [3]: Clearance in Sprague-Dawley rat at 1 mg/kg, iv up to 24 hrs by LC-MS/MS analysis. The class given is ADME, organism-based. The following applies: in vivo.
A short description of series [4]: Oral bioavailability in Sprague-Dawley rat at 5 mg/kg up to 24 hrs by LC-MS/MS analysis. The settings on record: in vivo. Format: ADME, organism-based.
Another series addresses Angiopoietin-1 receptor (Homo sapiens, UniProt Q02763). Briefly: Inhibition of TEK (unknown origin) using biotin as substrate preincubated for 5 mins followed by substrate addition and measured after 30 to 60 mins by HTRF assay.
Series [5] can be described thus: Clearance in Sprague-Dawley rat at 5 mg/kg, po up to 24 hrs by LC-MS/MS analysis. The class given is ADME, organism-based. The following applies: in vivo.
The target in series [6] is Vascular endothelial growth factor receptor 3 (Homo sapiens, UniProt P35916). Briefly: Inhibition of FLT4 (unknown origin) using biotin as substrate preincubated for 5 mins followed by substrate addition and measured after 30 to 60 mins by HTRF assay.
A short description of series [7]: Cmax in Sprague-Dawley rat at 5 mg/kg, po up to 24 hrs by LC-MS/MS analysis. The class given is ADME, organism-based. Also noted: route oral, dose 5 mg/kg, time <=24. The settings on record: in vivo.
Series [8] is described as follows: Apparent volume of distribution in Sprague-Dawley rat at 1 mg/kg, iv up to 24 hrs by LC-MS/MS analysis. The class given is ADME, organism-based. The settings on record: in vivo, read-out: Vz.
Series [9] is described as follows: Antitumour activity against human U87MG cells xenografted in athymic nude mouse assessed as tumour growth inhibition at 37.5 mg/kg, po for 21 days relative to control. The settings on record: U-87 MG, 504 h, time 21 day, read-out: TGI. The class given is functional, U87.
Series [10] can be described thus: Antitumour activity against human U87MG cells xenografted in athymic nude mouse assessed as tumour growth inhibition at 3 mg/kg, po for 21 days relative to control. The following applies: U-87 MG, 504 h, time 21 day, read-out: TGI. The class given is functional, U87.
A short description of another series: animal or person. The following applies: Homo sapiens, U-87 MG, po, 504 h, read-out: TGI.
Series [11] can be described thus: Cmax in Sprague-Dawley rat at 1 mg/kg, iv up to 24 hrs by LC-MS/MS analysis. The settings on record: in vivo. Details: route intravenous, dose 1 mg/kg, time <=24. The class given is ADME, organism-based.
Series [12] is described as follows: Tmax in Sprague-Dawley rat at 5 mg/kg, po up to 24 hrs by LC-MS/MS analysis. The settings on record: in vivo. Format: ADME, organism-based.
A further series has as its system U87. Briefly: Antitumour activity against human U87MG cells xenografted in po dosed athymic nude mouse assessed as tumour growth inhibition for 21 days. The class given is functional, organism-based. The settings on record: dose 3-37.5 mg/kg, time 21.0 day.
Series [13] addresses T1, Tyrosine-protein kinase receptor UFO (Homo sapiens, UniProt P30530).
T1 sequence (P30530 whole entry): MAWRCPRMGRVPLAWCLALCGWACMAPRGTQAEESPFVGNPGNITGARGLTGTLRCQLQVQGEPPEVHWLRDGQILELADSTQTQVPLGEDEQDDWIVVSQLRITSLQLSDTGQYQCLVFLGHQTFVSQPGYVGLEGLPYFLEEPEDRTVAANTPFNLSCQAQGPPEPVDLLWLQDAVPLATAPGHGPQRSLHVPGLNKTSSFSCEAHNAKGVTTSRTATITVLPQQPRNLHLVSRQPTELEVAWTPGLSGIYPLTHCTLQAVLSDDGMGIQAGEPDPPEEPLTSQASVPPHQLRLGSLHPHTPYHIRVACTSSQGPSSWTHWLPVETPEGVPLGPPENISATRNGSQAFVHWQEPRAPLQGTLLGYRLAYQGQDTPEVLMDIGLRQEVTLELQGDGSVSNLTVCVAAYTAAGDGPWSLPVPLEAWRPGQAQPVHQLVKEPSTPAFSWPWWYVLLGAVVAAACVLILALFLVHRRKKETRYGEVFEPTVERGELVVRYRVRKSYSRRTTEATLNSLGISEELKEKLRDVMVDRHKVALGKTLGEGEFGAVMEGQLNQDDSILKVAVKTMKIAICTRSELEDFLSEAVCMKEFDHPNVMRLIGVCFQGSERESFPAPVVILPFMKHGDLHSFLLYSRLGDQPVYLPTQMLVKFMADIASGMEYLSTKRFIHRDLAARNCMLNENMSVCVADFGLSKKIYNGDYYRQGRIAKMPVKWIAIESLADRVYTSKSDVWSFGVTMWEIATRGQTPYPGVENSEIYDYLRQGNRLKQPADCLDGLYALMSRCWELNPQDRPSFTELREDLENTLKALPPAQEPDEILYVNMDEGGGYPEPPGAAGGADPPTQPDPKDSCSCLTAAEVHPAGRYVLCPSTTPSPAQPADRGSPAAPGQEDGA
The series is described as follows: Inhibition of AXL (unknown origin) using biotin as substrate preincubated for 5 mins followed by substrate addition and measured after 30 to 60 mins by HTRF assay.

A short description of series [14]: AUC (0 to infinity) in Sprague-Dawley rat at 1 mg/kg, iv up to 24 hrs by LC-MS/MS analysis. Format: ADME, organism-based. Also noted: route intravenous, dose 1 mg/kg, time <=24. The following applies: in vivo.
The nature of series [15]: Half life in Sprague-Dawley rat at 1 mg/kg, iv up to 24 hrs by LC-MS/MS analysis. Format: ADME, organism-based. The following applies: in vivo.
Series [16] in a line: AUC (0 to infinity) in Sprague-Dawley rat at 5 mg/kg, po up to 24 hrs by LC-MS/MS analysis. The settings on record: in vivo. Format: ADME, organism-based. Also noted: route oral, dose 5 mg/kg, time <=24.
Series [17] can be described thus: Half life in Sprague-Dawley rat at 5 mg/kg, po up to 24 hrs by LC-MS/MS analysis. Format: ADME, organism-based. The settings on record: in vivo.
A short description of series [18]: Antitumour activity against human U87MG cells xenografted in athymic nude mouse assessed as tumour growth inhibition at 6 mg/kg, po for 21 days relative to control. The class given is functional, U87. The following applies: U-87 MG, 504 h, time 21 day, read-out: TGI.
Series [19] can be described thus: Apparent volume of distribution in Sprague-Dawley rat at 5 mg/kg, po up to 24 hrs by LC-MS/MS analysis. The class given is ADME, organism-based. The settings on record: in vivo.

Chain of Hepatocyte growth factor receptor (P08581 whole entry): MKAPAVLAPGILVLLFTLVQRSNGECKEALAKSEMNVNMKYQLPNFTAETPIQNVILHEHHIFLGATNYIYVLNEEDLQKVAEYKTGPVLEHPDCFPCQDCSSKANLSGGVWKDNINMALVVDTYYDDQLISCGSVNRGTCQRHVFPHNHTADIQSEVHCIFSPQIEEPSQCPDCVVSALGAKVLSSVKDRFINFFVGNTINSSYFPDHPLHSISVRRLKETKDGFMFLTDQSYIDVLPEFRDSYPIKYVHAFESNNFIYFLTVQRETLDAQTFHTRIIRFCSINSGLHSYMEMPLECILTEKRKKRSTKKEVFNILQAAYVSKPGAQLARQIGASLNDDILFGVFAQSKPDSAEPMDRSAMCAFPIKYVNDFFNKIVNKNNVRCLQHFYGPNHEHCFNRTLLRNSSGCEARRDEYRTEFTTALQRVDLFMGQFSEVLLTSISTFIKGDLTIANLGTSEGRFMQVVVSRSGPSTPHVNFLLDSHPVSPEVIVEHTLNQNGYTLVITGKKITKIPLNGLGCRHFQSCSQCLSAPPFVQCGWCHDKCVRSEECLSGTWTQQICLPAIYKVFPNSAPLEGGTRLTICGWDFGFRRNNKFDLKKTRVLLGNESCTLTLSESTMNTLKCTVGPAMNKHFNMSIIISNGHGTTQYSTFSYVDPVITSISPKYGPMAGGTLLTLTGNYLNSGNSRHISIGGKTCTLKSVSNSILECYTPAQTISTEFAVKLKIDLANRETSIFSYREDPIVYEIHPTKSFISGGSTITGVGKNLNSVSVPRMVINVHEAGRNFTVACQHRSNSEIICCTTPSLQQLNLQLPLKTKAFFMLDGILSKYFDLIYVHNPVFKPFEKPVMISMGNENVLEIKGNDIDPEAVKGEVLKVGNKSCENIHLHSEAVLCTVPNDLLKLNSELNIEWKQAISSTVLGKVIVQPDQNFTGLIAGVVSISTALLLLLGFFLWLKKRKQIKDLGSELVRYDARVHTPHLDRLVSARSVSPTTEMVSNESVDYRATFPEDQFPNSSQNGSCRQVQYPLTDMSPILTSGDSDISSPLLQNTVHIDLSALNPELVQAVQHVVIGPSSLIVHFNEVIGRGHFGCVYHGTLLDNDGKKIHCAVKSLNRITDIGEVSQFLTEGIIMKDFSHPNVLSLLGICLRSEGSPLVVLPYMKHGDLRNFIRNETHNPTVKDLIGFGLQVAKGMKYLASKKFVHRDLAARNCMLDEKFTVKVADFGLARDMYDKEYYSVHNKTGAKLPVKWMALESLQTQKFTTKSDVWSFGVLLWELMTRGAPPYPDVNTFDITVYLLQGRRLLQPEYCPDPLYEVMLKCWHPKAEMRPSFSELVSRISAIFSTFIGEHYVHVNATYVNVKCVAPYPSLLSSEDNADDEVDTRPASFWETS
Chain of Angiopoietin-1 receptor (Q02763 whole entry): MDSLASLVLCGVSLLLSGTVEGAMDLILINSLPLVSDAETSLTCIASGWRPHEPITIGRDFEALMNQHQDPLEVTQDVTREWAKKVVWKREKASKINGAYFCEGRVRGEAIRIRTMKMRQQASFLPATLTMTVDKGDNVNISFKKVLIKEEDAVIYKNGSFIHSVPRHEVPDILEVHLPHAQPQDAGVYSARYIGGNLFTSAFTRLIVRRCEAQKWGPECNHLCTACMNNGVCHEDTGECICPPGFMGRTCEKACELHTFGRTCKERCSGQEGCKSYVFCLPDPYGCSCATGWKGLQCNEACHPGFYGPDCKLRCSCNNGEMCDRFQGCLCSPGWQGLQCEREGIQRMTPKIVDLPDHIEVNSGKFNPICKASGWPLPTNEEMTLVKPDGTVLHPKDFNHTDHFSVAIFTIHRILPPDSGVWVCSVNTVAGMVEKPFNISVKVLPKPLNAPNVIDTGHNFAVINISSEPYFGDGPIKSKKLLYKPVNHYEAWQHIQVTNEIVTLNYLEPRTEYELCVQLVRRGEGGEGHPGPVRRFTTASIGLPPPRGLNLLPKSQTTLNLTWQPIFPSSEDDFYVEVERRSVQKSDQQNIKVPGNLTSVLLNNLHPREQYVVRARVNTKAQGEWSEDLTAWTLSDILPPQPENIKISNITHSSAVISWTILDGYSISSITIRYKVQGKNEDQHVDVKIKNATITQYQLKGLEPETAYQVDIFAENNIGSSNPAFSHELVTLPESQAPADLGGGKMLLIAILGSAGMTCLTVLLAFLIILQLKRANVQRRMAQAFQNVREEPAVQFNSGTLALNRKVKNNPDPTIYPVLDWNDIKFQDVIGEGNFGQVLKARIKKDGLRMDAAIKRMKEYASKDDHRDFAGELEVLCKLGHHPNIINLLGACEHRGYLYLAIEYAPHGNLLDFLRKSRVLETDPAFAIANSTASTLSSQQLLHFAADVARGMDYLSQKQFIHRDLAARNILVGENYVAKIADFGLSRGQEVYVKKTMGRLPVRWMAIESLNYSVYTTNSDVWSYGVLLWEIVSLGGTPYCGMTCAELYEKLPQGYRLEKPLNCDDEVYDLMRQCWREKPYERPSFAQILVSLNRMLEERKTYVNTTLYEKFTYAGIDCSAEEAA
Chain of Vascular endothelial growth factor receptor 3 (P35916 whole entry): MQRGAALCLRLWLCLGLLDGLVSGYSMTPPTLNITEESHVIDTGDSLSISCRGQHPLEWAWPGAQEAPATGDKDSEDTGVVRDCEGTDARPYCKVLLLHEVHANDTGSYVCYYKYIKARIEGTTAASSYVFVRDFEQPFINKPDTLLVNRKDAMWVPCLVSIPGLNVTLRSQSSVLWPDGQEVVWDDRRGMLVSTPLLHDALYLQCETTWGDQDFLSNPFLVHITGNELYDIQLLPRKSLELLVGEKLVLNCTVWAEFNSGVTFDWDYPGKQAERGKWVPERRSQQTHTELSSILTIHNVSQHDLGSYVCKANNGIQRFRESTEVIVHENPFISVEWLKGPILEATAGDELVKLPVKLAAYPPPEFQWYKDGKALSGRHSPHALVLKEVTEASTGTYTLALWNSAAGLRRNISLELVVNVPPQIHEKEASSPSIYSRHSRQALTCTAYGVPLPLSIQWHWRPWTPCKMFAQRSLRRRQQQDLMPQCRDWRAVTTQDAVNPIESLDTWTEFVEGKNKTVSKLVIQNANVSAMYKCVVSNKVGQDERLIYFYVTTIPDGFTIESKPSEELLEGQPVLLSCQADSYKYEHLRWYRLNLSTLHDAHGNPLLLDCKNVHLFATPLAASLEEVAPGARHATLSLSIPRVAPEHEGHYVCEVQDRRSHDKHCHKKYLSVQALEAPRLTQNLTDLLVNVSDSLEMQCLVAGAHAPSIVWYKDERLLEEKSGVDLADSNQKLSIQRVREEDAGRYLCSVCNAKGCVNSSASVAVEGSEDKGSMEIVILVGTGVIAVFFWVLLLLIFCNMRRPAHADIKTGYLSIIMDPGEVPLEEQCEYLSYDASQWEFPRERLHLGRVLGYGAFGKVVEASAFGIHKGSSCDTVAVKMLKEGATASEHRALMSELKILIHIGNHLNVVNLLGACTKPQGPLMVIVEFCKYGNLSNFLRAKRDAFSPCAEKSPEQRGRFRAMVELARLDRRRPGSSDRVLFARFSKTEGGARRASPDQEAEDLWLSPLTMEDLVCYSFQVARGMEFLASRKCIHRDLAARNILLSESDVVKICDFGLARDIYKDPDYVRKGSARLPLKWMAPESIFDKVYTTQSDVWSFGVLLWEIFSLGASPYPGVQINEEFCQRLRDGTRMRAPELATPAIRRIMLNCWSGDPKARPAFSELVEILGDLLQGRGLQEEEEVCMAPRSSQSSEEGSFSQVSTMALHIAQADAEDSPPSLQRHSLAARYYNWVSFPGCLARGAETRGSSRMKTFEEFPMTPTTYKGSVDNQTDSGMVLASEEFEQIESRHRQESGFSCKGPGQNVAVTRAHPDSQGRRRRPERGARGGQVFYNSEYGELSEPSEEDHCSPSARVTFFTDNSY

As for `COCCOc1ccc2c(Oc3ccc(Nc4nccc5[nH]cc(-c6ccc(F)cc6)c(=O)c45)cc3F)ccnc2c1`, the IC50 in the series on HT-29 was found to be 6.5 µM; in series [2], 0.0084 µM; with MKN-45 it was 5.6 µM; in the series on NCI-H460, 4.3 µM; in “cells”, 5.1 µM. This compound also gave a half-life in [1] of 1.73 h.

Consider `COC(C)(C)COc1ccc2c(Oc3ccc(Nc4nccc5[nH]cc(-c6ccc(F)cc6)c(=O)c45)cc3F)ccnc2c1`, for which the IC50 with HT-29 was 4.8 µM; in [2] it was 0.0131 µM; in the series on MKN-45, 5.5 µM; with NCI-H460 it was 4.4 µM; in “cells”, 16.4 µM. In series [1], this compound displayed a half-life of 1.45 h.

On to `COc1cc2c(Oc3ccc(Nc4nccc5[nH]cc(-c6ccc(F)cc6)c(=O)c45)cc3F)ccnc2cc1OCC(C)(C)OC`, for which the midpoint of inhibition in series [2], the IC50, lay at 0.0121 µM.

`COCCOc1cc2nccc(Oc3ccc(Nc4nccc5[nH]cc(-c6ccc(F)cc6)c(=O)c45)cc3F)c2cc1OC`: the IC50 came to 4.6 µM in the series on HT-29; 0.083 µM in series [2]; 3.1 µM with MKN-45; 3 µM with NCI-H460; 5.2 µM in the series “cells”. In series [1], this compound had a half-life of 1.06 h.

Regarding `O=c1c(-c2ccccc2)c[nH]c2ccnc(Nc3ccc(Oc4ccnc5cc(OCCCN6CCOCC6)ccc45)c(F)c3)c12`, the half-life in series [1] stood at 0.297 h.

In the case of `Cc1[nH]c2ccnc(Nc3ccc(Oc4ccnc5cc(OCC(C)(C)O)ccc45)c(F)c3)c2c(=O)c1-c1ccccc1`, in series [2], the IC50 was determined as 0.0403 µM.

In the case of `O=c1c(-c2ccc(F)cc2)c[nH]c2ccnc(Nc3ccc(Oc4ccnc5cc(O)ccc45)c(F)c3)c12`, the concentration for half-maximal inhibition (IC50) in the series on HT-29 stood at 5.9 µM; in series [2], 0.005 µM; in the series with MKN-45, 5 µM; with NCI-H460 it was 43 µM; in the series “cells”, 7.2 µM. The half-life in [1] was determined as 0.893 h.

Consider `COc1cc2c(Oc3ccc(Nc4nccc5[nH]cc(-c6ccc(F)cc6)c(=O)c45)cc3F)ccnc2cc1OCC(C)(C)O`, for which the IC50 with HT-29 is 2.1 µM; in the series with MKN-45, 1.4 µM; with NCI-H460, 1.7 µM; in the series “cells”, 2.6 µM. This compound also returned a half-life in series [1] of 5.17 h.

With `CC(O)COc1ccc2c(Oc3ccc(Nc4nccc5[nH]cc(-c6ccc(F)cc6)c(=O)c45)cc3F)ccnc2c1` (stereo not given), the IC50 in the series with HT-29 amounted to 3.9 µM; in series [2], 0.133 µM; in the series on MKN-45, 3.1 µM; in the series on NCI-H460, 3.4 µM; in “cells” it was 8.5 µM. Further, the half-life in series [1] turned out to be 1.42 h.

For `O=c1c(-c2ccc(F)cc2)c[nH]c2ccnc(Nc3ccc(Oc4ccnc5cc(OCCO)ccc45)c(F)c3)c12`, the IC50 worked out at 5.5 µM in the series with HT-29, 4.7 µM in the series on MKN-45, 3.5 µM in the series on NCI-H460 and 4.9 µM in the series “cells”. Further, the half-life in series [1] came to 1.51 h.

For the compound `COc1cc2c(Oc3ccc(Nc4nccc5[nH]cc(-c6ccc(F)cc6)c(=O)c45)cc3F)ccnc2cc1OCCO`, the IC50 in the series on HT-29 was 2.9 µM; in series [2], 0.0057 µM; with MKN-45, 1.6 µM; in the series with NCI-H460, 2 µM; in the series “cells” it was 4.1 µM. Also, the half-life in [1] came out at 1.48 h.

In series [1], `CC(C)COc1ccc2c(Oc3ccc(Nc4nccc5[nH]cc(-c6ccc(F)cc6)c(=O)c45)cc3F)ccnc2c1` came in with a half-life of 1.5 h. The IC50 in [2] was 0.0278 µM.

Turning to `CC(C)(O)COc1ccc2c(Oc3ccc(Nc4nccc5[nH]cc(-c6ccc(F)cc6)c(=O)c45)cc3F)ccnc2c1`, the IC50 in the series on HT-29 turned out to be 3.4 µM; with MKN-45 it was 2.7 µM; in the series on NCI-H460 it was 3.2 µM; in “cells”, 4.7 µM. Moreover, in [1], the half-life is 4.14 h.

As for `COc1cc2c(Oc3ccc(Nc4nccc5[nH]cc(-c6ccc(F)cc6)c(=O)c45)cc3F)ccnc2cc1OCC(C)C`, the IC50 in series [2] came to 0.0197 µM.

The compound `CC(C)(O)COc1ccc2c(Oc3ccc(Nc4nccc5[nH]cc(-c6ccccc6)c(=O)c45)cc3F)ccnc2c1` gave a clearance in [3] of 3.33 mL/min/kg. Moreover, the IC50 with HT-29 amounted to 4.2 µM; on Angiopoietin-1 receptor it was 0.019 µM; in series [6] it was 0.116 µM; in the series with MKN-45, 2.9 µM; in the series on NCI-H460 it was 3.6 µM; in series [13] it was 0.0323 µM. Also, in the series “cells”, inhibition was half-maximal at 4.5 µM (IC50). Moreover, the bioavailability in series [4] amounted to 32%. Moreover, the figures for the half-life in series [1], in series [15] and in [17] were 5.37 h, 4 h and 4.9 h, respectively. This compound also showed a CL/F in series [5] of 8.33 mL/min/kg. The Cmax in series [7] worked out at 1500 ng/mL; in series [11], 500 ng/mL. The Vd in series [8] was determined as 0.9 L/kg. Also, the inhibition in vivo at 37.5 mg/kg in series [9] was found to be 172%. For the same compound, in series [10], the inhibition in vivo at 3 mg/kg turned out to be 47%. The inhibition in vivo at 12.5 mg/kg in the series “animal or person” turned out to be 131%. In addition, the Tmax in [12] amounted to 4 h. Moreover, the TGI entry in the series on U87 was “Dose-dependent effect”. Moreover, the AUC(0-inf) in [14] was 6600 ng·h/mL; in [16] it was 10700 ng·h/mL. In addition, the inhibition in vivo at 6 mg/kg in series [18] is 57%. In series [19], the Vz worked out at 3.3 L/kg.

As to `O=c1c(-c2ccc(F)cc2)c[nH]c2ccnc(Nc3ccc(Oc4ccnc5cc(OCCN6CCOCC6)ccc45)c(F)c3)c12`, in series [1], the half-life is 0.11 h.

`COCCOc1cc2nccc(Oc3ccc(Nc4nccc5[nH]cc(-c6ccccc6)c(=O)c45)cc3F)c2cc1OC` returned an IC50 in series [2] of 0.0077 µM. This lies in the single-digit nanomolar range.

In the case of `COc1cc2nccc(Oc3ccc(Nc4nccc5[nH]cc(-c6ccc(F)cc6)c(=O)c45)cc3F)c2cc1OC`, the IC50 in series [2] came out at 0.0766 µM.
